Experimental data published in patent publication US20250228863A1, “Methods and Products to Screen and Treat Glioblastoma Multiforme and Other Cancers, Including Breast Cancers, Using A Combination of PI3KINASE Inhibitors With Checkpoint Inhibitors” (GLOBAL CANCER TECHNOLOGY, INC., priority 2022, published 2025).

Experiments:
MCF7 SEMA7A OE cells = experiment: MCF7 EV and SEMA7A over-expressing cells treated with endocrine therapy and/or PI3K inhibitor; assay type: cell-based, human
Protocol: Cell Culture Protocol: Cells were plated in 10 cm plates at ˜1 million cells/plate and incubated overnight to allow adherence. Cell lines and media that were used included McCoy's 5a modified media for HER2+ breast cancer cell line SKBR3 cells, and for MDA-MB-231, MDA-MB-468, MCF-7, and HS578t, culture medium was DMEM. Cells were then treated with the PI3K inhibitor: 0 uM (control), 1 uM, or 10 uM. Treated cells incubated for ˜72 hours. After incubation, cells were imaged, then harvested with 0.25% trypsin/EDTA and counted using trypan blue viability stain with Nexcelom Cellometer Mini. The MDA-MB-231 cell line is an epithelial, human breast cancer cell line that was established from a pleural effusion of a patient with metastatic mammary adenocarcinoma.
FIG. 13A, FIG. 13B, and FIG. 13C. […] MCF7EV and SEMA7A OE cells were treated for 48 hours with A) fulvestrant (7.5 nM), B} Alpelisib (1 uM), or C) the combination.
FIG. 14A, FIG. 14B, FIG. 14C, FIG. 14D, and FIG. 14E. SEMA7A-expressing cells are sensitive to both Alpelisib and a novel PI3K inhibitor (GCT.BR.1) FIG. 14A) MCF7 cells treated with vehicle, 1 uM Alpelisib and 1 uM GCT.BR.1. Scalebar=10 microns. FIG. 14B) Quantification of A. FIG. 14C) MCF7 S7 OE spheroids in suspension were treated with vehicle (DMSO), 1 uM Alpelisib or 0.5 uM GCT and stained with Calcein green viability dye after 48 h. […]

[1] = orally available; literature statement; cited from earlier work

In the case of Cc1nc(NC(=O)N2CCC[C@H]2C(N)=O)sc1-c1ccnc(C(C)(C)C(F)(F)F)c1 [Alpelisib], the “sensitivity of SEMA7A-expressing cells” value (MCF7 SEMA7A OE cells; MCF7, 1 uM, FIG. 14) is reported as “sensitive”.

In the case of CC1(C)OCCn2c1nc1c(N3CCOCC3)nc(-c3cnc(N)nc3)nc12 [GDC 0084], the “blood brain barrier permeation” value [1] is listed as “can permeate the blood brain barrier”.

In the case of C[C@]12CC[C@@H]3c4ccc(O)cc4C[C@@H](CCCCCCCCC[S+]([O-])CCCC(F)(F)C(F)(F)F)[C@H]3[C@@H]1CC[C@@H]2O (stereo partly drawn) [fulvestrant], the “response of SEMA7A over-expressing cells to treatment” value (MCF7 SEMA7A OE cells; 48 hours, fulvestrant 7.5 nM, Alpelisib 1 uM, FIG. 13) is reported as “respond poorly”.
